Laboratory results reported in publication PMC7614784, “Structure and function of the RAD51B-RAD51C-RAD51D-XRCC2 tumour suppressor” (Nature, 2023).

Legend:
[1] = target: T1, BCDX2 (RAD51B-RAD51C-RAD51D-XRCC2) (Homo sapiens, UniProt O15315+O43502+O43543+O75771); assay: HPLC of nucleotides extracted from purified complex; assay type: binding; details: nucleotide co-purified with the complex; 2.5 mM Mg2+, pH 7.5; sites: RAD51B and RAD51C
T1 construct: four-subunit complex co-expressed in Sf9 cells; N-terminal TwinStrep-TEV tag on XRCC2 removed by TEV protease

[2] = target: T2, BCDX2 (RAD51B-RAD51C-RAD51D-XRCC2) (Homo sapiens, UniProt O15315+O43502+O43543+O75771, O15315:K114A, form not given); assay: as above; assay type: binding; details: RAD51B Walker A mutant; nucleotide co-purified with the complex; 2.5 mM Mg2+, pH 7.5
T2 construct: four-subunit complex co-expressed in Sf9 cells; N-terminal TwinStrep-TEV tag on XRCC2 removed by TEV protease

[3] = target: T1, BCDX2 (RAD51B-RAD51C-RAD51D-XRCC2); assay: cryo-EM structure ([…] Å and […] Å); assay type: binding; details: Mg2+, sample vitrified with ADP.AlFx or ADP.BeFx
[4] = target: T1, BCDX2 (RAD51B-RAD51C-RAD51D-XRCC2); assay: HPLC of nucleotides extracted from purified complex; assay type: binding; details: nucleotide co-purified with the complex; 2.5 mM Mg2+, pH 7.5
[5] = target: T2, BCDX2 (RAD51B-RAD51C-RAD51D-XRCC2); assay: as above; assay type: binding; details: RAD51B Walker A mutant; nucleotide co-purified with the complex; 2.5 mM Mg2+, pH 7.5; remark: listed apart in the source
[6] = target: T3, BCDX2 (RAD51B-RAD51C-RAD51D-XRCC2) (Homo sapiens, UniProt O15315+O43502+O43543+O75771, O15315:E144A, form not given); assay: ATPase assay, alpha-32P-ATP, TLC; assay type: biochemical; details: RAD51B catalytic glutamate mutant; 15 µM ATP, 1 µM complex, 2.5 mM Mg2+, pH 7.5, 37 °C
T3 construct: four-subunit complex co-expressed in Sf9 cells; N-terminal TwinStrep-TEV tag on XRCC2 removed by TEV protease

[7] = target: T4, BCDX2 (RAD51B-RAD51C-RAD51D-XRCC2) (Homo sapiens, UniProt O15315+O43502+O43543+O75771, O15315:E144A/O43502:E161A, form not given); assay: HPLC of nucleotides extracted from purified complex; assay type: binding; details: RAD51B and RAD51C catalytic glutamate double mutant; 2.5 mM Mg2+, pH 7.5
T4 construct: four-subunit complex co-expressed in Sf9 cells; N-terminal TwinStrep-TEV tag on XRCC2 removed by TEV protease

[8] = target: T5, BCDX2 (RAD51B-RAD51C-RAD51D-XRCC2) (Homo sapiens, UniProt O15315+O43502+O43543+O75771, O43502:E161A, form not given); assay: as above; assay type: binding; details: RAD51C catalytic glutamate mutant; 2.5 mM Mg2+, pH 7.5
T5 construct: four-subunit complex co-expressed in Sf9 cells; N-terminal TwinStrep-TEV tag on XRCC2 removed by TEV protease
T5 sequence (O15315 1-345, form open): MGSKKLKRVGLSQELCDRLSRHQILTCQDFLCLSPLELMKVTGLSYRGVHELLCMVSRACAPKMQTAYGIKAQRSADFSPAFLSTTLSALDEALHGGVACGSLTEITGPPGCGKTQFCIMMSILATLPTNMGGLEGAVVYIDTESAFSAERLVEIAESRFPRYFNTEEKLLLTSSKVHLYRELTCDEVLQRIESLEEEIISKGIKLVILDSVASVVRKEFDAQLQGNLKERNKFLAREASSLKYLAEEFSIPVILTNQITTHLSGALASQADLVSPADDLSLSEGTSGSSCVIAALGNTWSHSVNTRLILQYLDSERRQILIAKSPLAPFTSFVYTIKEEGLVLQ
T5 sequence (O43502 whole entry E161A, form open): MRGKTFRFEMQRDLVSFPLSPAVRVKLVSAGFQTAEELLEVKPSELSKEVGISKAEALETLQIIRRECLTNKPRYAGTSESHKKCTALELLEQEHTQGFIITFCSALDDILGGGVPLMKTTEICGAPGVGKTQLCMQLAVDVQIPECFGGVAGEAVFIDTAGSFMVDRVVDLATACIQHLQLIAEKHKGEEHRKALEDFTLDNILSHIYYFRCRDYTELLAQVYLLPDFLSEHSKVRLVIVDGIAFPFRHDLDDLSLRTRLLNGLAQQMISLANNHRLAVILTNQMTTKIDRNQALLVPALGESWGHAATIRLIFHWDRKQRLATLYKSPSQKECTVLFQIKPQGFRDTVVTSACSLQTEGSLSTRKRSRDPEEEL
T5 sequence (O75771 whole entry, form open): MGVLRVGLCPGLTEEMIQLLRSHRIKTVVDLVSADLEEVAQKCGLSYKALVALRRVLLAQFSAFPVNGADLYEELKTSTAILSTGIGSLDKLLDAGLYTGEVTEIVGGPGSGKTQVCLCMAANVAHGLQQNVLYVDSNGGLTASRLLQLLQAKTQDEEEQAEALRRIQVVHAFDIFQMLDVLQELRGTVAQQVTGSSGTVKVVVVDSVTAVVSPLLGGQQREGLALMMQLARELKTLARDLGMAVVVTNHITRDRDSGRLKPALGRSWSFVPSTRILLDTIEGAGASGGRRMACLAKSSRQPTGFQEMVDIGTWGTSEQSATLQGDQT
T5 sequence (O43543 whole entry, form open): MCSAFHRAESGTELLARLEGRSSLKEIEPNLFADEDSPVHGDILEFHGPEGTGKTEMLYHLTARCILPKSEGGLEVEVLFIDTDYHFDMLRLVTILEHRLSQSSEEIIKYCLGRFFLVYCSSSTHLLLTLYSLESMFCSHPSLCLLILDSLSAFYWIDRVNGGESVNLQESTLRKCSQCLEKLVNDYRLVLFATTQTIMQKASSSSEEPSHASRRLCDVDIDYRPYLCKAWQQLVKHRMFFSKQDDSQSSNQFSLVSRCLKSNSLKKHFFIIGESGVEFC

T1 sequence (O15315 1-345): as the sequence (O15315 1-345, form open) above
T1 sequence (O43502 whole entry): as the sequence (O43502 whole entry E161A, form open) above, with A161E counted along it
T1 sequence (O75771 whole entry): as the sequence (O75771 whole entry, form open) above
T1 sequence (O43543 whole entry): as the sequence (O43543 whole entry, form open) above
T2 sequence (O15315 1-345 K114A, form open): as the sequence (O15315 1-345, form open) above, with K114A counted along it
T2 sequence (O43502 whole entry, form open): as the sequence (O43502 whole entry E161A, form open) above, with A161E counted along it
T2 sequence (O75771 whole entry, form open): as the sequence (O75771 whole entry, form open) above
T2 sequence (O43543 whole entry, form open): as the sequence (O43543 whole entry, form open) above
T4 sequence (O15315 1-345 E144A, form open): as the sequence (O15315 1-345, form open) above, with E144A counted along it
T4 sequence (O43502 whole entry E161A, form open): as the sequence (O43502 whole entry E161A, form open) above
T4 sequence (O75771 whole entry, form open): as the sequence (O75771 whole entry, form open) above
T4 sequence (O43543 whole entry, form open): as the sequence (O43543 whole entry, form open) above
T3 sequence (O15315 1-345 E144A, form open): as the sequence (O15315 1-345, form open) above, with E144A counted along it
T3 sequence (O43502 whole entry, form open): as the sequence (O43502 whole entry E161A, form open) above, with A161E counted along it
T3 sequence (O75771 whole entry, form open): as the sequence (O75771 whole entry, form open) above
T3 sequence (O43543 whole entry, form open): as the sequence (O43543 whole entry, form open) above

nt of ADP bound per complex [1] | nt of ADP bound per complex [2] | nt of ATP bound per complex [4] | nt of ATP bound per complex [5] | % reduction of ATPase activity relative to wild-type [6] | SMILES | cryo-EM structure (2.2 Å and 3.4 Å) ([3]; site: RAD51C nucleotide site) | HPLC of nucleotides extracted from purified complex [7] | cryo-EM structure (2.2 Å and 3.4 Å) ([3]; sites: RAD51D and XRCC2 nucleotide sites, co-purified nucleotide) | HPLC of nucleotides extracted from purified complex [8]
1.9 ± 0.1 nt per complex | 1.2 ± 0.1 nt per complex |  |  |  | Nc1ncnc2c1ncn2[C@@H]1O[C@H](COP(=O)(O)OP(=O)(O)O)[C@@H](O)[C@H]1O [ADP] | RAD51D and XRCC2 bound ATP whereas RAD51C bound ADP |  |  | 
 |  | 2.1 ± 0.2 nt per complex | 1.8 ± 0.1 nt per complex | ~ 50% | Nc1ncnc2c1ncn2[C@@H]1O[C@H](COP(=O)(O)OP(=O)(O)OP(=O)(O)O)[C@@H](O)[C@H]1O [ATP] |  | all nucleotide binding sites were fully occupied with ATP | RAD51D and XRCC2 bound ATP whereas RAD51C bound ADP | all nucleotide binding sites were fully occupied with ATP
